Results: patent publication US9533977B2, “Oxazolidinone derivative as CETP inhibitor, its preparation method, and pharmaceutical composition comprising the same” (DONG-A ST CO., LTD., priority 2013, dated 2017)
Read-outs that look alike come from different tables or passages of the source.

What was measured:
[1] = target: T1, CETP (Homo sapiens, UniProt P11597); assay: Inhibitory activity against CETP in human plasma (Roar CETP activity kit, fluorescence); format: biochemical; settings: plasma from healthy men diluted 1:10 in assay buffer, 37° C., 3 hrs, fluorescence 465/535 nm; read-out: IC50, Inhibition of CETP Activity in Human Plasma
T1 construct: from tissue; host or cells: human plasma from healthy men
T1 sequence (P11597 18-493): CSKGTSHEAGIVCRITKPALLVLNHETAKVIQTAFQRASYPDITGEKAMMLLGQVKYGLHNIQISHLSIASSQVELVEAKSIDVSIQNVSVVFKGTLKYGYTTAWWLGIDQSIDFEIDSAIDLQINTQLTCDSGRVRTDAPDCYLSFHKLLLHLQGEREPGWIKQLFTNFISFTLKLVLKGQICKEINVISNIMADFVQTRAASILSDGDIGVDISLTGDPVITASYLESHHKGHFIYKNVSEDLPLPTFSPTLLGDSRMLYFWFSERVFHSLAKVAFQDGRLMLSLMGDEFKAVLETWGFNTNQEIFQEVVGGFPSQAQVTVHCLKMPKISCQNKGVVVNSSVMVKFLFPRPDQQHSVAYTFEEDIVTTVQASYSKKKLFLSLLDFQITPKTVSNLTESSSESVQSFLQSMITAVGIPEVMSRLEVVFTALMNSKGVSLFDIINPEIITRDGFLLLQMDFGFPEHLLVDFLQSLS
Summary of the method: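 Healthy male human plasma, diluted 1:10, incubated 3 hrs at 37° C with donor/acceptor fluorescent substrates and compound (0.01–10000 nM, DMSO). Fluorescence at ex 465/em 535 nm, background-corrected against no-plasma and no-compound wells; IC50 from sigmoidal fit.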

[2] = Drug concentration in blood and tissues of hamsters administered with multiple doses; format: in vivo, Golden Syrian Hamsters; settings: oral 10 mg/kg every day for two weeks; for concentration at 2 h: male, Golden Syrian, hamster, two hours after the final administration
Description: (§1) Each of the compounds of Examples 58, 96, 103 and 125 was orally administered at a dose of 10 mg/kg to 10 7-week-old male Golden Syrian Hamsters per group, every day for two weeks. Two hours after the final administration, blood samples were taken from the hamsters which then underwent an autopsy to analyze blood lipid levels and drug concentrations in blood and tissues (adipose tissues and liver)

[3] = system: Blood HDL-C; assay: Blood HDL-C level in multi-dosed hamsters; format: in vivo, Golden Syrian Hamsters; settings: oral 10 mg/kg every day for two weeks, blood two hours after the final administration
Description: as §1

[4] = system: CETP; assay: Effect on CETP activity in hamster administered with single dose; format: in vivo, Golden Syrian hamsters; settings: hamsters, single oral dose 100 mg/kg, blood 0.5-24 hrs after administration, compared to pre-treatment
Description: Each of the compounds of the Examples was orally administered at a dose of 100 mg/kg to three 7-week-old male Golden Syrian hamsters per group. Blood samples were taken from the retro-orbital plexus before administration and 0.5, 1, 2, 4, 6, 8, and 24 hrs after administration, and measured for blood CETP activity using a Roar CETP activity assay kit (Cat#: RB-CETP, Roar Biomedical Inc.).

[5] = adipose tissue, read-out: Drug Concentration Adipose Tissue
[6] = blood, read-out: Drug Concentration Blood
[7] = liver, read-out: Drug Concentration Liver Tissue

Row | SMILES | IC50 [1] [nM] | concentration at 2 h [2, 5] [ng/g] | concentration at 2 h [2, 6] [µg/mL] | concentration at 2 h [2, 7] [ng/g] | Distribution between blood, liver and adipose tissues (in words) [2] | Relative Increase HDL-C (%) to VC (Vehicle) [3] [%] | Relative Maximal Inhibition of CETP Activity to Pre-Administration (%) [4] [%]
1 | CCN(c1ncc(N2CCCC2C)cc1CN1C(=O)O[C@H](c2cc(C(F)(F)F)cc(C(F)(F)F)c2)[C@@H]1C)C1CCCCC1 (stereo partly drawn) [Example 89, (4S,5R)-5-[3,5-bis(trifluoromethyl)phenyl]-4-methyl-3-({[2-(ethyl)(cyclohexyl)amino]-5-(2-methyl-pyrrolidin-1-yl)pyridin-3-yl}methyl)-oxazolidin-2-one] | 7 |  |  |  |  |  | 53
2 | CCN(c1ncc(N2CCCC2)cc1CN1C(=O)O[C@H](c2cc(C(F)(F)F)cc(C(F)(F)F)c2)[C@@H]1C)C1CCCCC1 [Example 88, (4S,5R)-5-[3,5-bis(trifluoromethyl)phenyl]-4-methyl-3-({[2-(ethyl)(cyclohexyl)amino]-5-(pyrrolidin-1-yl)pyridin-3-yl}methyl)-oxazolidin-2-one] | 10.7 |  |  |  |  |  | 45
3 | CCN(C[C@H]1CC[C@H](CC(=O)O)CC1)c1ncc(N2CCCC2)nc1CN1C(=O)OC(c2cc(C(F)(F)F)cc(C(F)(F)F)c2)[C@@H]1C (stereo partly drawn) [Example 103] | 3.26 |  |  |  |  | 47 | 52
4 | CCCN(C[C@H]1CC[C@H](CC(=O)O)CC1)c1ncc(N2CCCC2)nc1CN1C(=O)OC(c2cc(C(F)(F)F)cc(C(F)(F)F)c2)[C@@H]1C (stereo partly drawn) [Example 124] | 7.13 |  |  |  |  |  | 52
5 | CCCN(CC1CCC(CC(=O)O)CC1)c1ncc(C2CC2)nc1CN1C(=O)OC(c2cc(C(F)(F)F)cc(C(F)(F)F)c2)C1C (stereo not drawn) [Example 125] | 40.3 |  |  |  |  | 27 | 56

The next compounds have a lower IC50 [1] than those just listed; values first:

Row | IC50 [1] [nM] | concentration at 2 h [2, 5] [ng/g] | concentration at 2 h [2, 6] [µg/mL] | concentration at 2 h [2, 7] [ng/g] | SMILES | Distribution between blood, liver and adipose tissues (in words) [2] | Relative Increase HDL-C (%) to VC (Vehicle) [3] [%] | Relative Maximal Inhibition of CETP Activity to Pre-Administration (%) [4] [%]
6 | 2.7 | 10200 | 0.606 | 415 | CCN(c1ncc(-c2c(C)noc2C)cc1CN1C(=O)O[C@H](c2cc(C(F)(F)F)cc(C(F)(F)F)c2)[C@@H]1C)C1CCCCC1 [Example 58, (4S,5R)-5-[3,5-bis(trifluoromethyl)phenyl]-4-methyl-3-({[2-(ethyl)(cyclohexyl)amino]-5-(3,5-dimethylisoxazol-4-yl)pyridin-3-yl}methyl)-oxazoliclin-2-one] | at low levels in blood and liver tissues, but at high levels in adipose tissues | 47 | 55
7 | 2.1 |  |  |  | CCN(c1ncc(-c2ccsc2)cc1CN1C(=O)O[C@H](c2cc(C(F)(F)F)cc(C(F)(F)F)c2)[C@@H]1C)C1CCCCC1 [Example 77, (4S,5R)-5-[3,5-bis(trifluoromethyl)phenyl]-4-methyl-3-({[2-(ethyl)(cyclohexyl)amino]-5-(thiophen-3-yl)pyridin-3-yl}methyl)-oxazolidin-2-one] |  |  | 50
8 | 2 | 7900 | 0.309 | 128 | CCN(c1ncc(-c2c(C)noc2C)nc1CN1C(=O)O[C@H](c2cc(C(F)(F)F)cc(C(F)(F)F)c2)[C@@H]1C)C1CCCCC1 [Example 96, (4S,5R)-5-[3,5-bis(trifluoromethyl)phenyl]-4-methyl-3-({[2-(ethyl)(cyclohexyl)amino]-5-(3,5-dimethyl-isoxazol-4-yl)pyrazin-3-yl}methyl)-oxazolidin-2-one] | at low levels in blood and liver tissues, but at high levels in adipose tissues | 48 | 56
9 | 0.8 |  |  |  | CCN(CC1CCC(CC(=O)O)CC1)c1ncc(-c2ccsc2)nc1CN1C(=O)OC(c2cc(C(F)(F)F)cc(C(F)(F)F)c2)C1C [Example 105, trans-4-({[3-({(4S,5S)-5-[3,5-bis(trifluoromethyl)phenyl]-4-methyl-2-oxazolidin-3-yl}methyl)-5-(thiophen-3-yl)pyrazin-2-yl]{[N-(ethyl)aminomethyl]cyclohexyl)}acetic acid] |  |  | 72
